According to the RepoRT retention time repository:

Assay: A: acetonitrile + 0.1% formic acid + 10 mM ammonium formate; B: 5% water + 95% acetonitrile + 0.1% formic acid + 10 mM ammonium formate; gradient (min/%B) 0/10 2/10 22/100 27/100 27.1/10
Conditions: stereoisomer not certain

LC retention time [min] | Compound
6.5 | NC[C@@H](O)CC(=O)O [(S)-(+)-4-Amino-3-hydroxybutyric acid]
0.622 | CN1C(=O)CCC1c1cccnc1 [(S)-Cotinine]
8.07 | CC1OC(OC2C(CO)OC(OC3C(CO)OC(O)C(O)C3O)C(O)C2O)C(O)C(O)C1NC1C=C(CO)C(O)C(O)C1O (configuration not stated) [Acarbose]
2.28 | CCCC(=O)Nc1ccc(OCC(O)CNC(C)C)c(C(C)=O)c1 (configuration not stated) [Acebutolol]
0.529 | CC(=O)Nc1nnc(S(N)(=O)=O)s1 [Acetazolamide]
2 | Nc1ncnc2nc[nH]c12 [Adenine]
9.46 | Nc1ncnc2c1ncn2C1OC(COP(=O)(O)OP(=O)(O)O)C(O)C1O (configuration not stated) [Adenosine 5'-diphosphate]
5.66 | Nc1ncnc2c1ncn2C1OC2COP(=O)(O)OC2C1O (configuration not stated) [Adenosine cyclophosphate]
6.76 | Nc1ncnc2c1ncn2C1OC(COP(=O)(O)O)C(O)C1O (configuration not stated) [Adenosine-5'-monophosphate]
2.08 | Nc1ncnc2c1ncn2C1OC(CO)C(O)C1O (configuration not stated) [Adenosine]
6.99 | NCCCCN=C(N)N [Agmatine]
0.407 | CC(C=CC=C(C)C=CC1=C(C)CCCC1(C)C)=CC=O [All trans-Retinal]
6.54 | NC(=O)NC(NC(N)=O)C(=O)O [Allantoic acid]
3.1 | NC(=O)NC1NC(=O)NC1=O (configuration not stated) [Allantoin]
0.996 | O=c1[nH]cnc2[nH]ncc12 [Allopurinol]
0.433 | CC(=O)OCC(=O)C12OC3(CCCC3)OC1CC1C3CCC4=CC(=O)C=CC4(C)C3(F)C(O)CC12C (configuration not stated) [Amcinonide]
2.91 | NC(N)=NC(=O)c1nc(Cl)c(N)nc1N [Amiloride]
6.5 | NC(CCCC(=O)O)C(=O)O (configuration not stated) [Aminoadipic acid]
0.756 | CCCCc1oc2ccccc2c1C(=O)c1cc(I)c(OCCN(CC)CC)c(I)c1 [Amiodarone]
0.977 | CN(C)CCC=C1c2ccccc2CCc2ccccc21 [Amitriptyline]

LC retention time [min] | Compound
2.02 | CCOC(=O)C1=C(COCCN)NC(C)=C(C(=O)OC)C1c1ccccc1Cl (configuration not stated) [Amlodipine]
5.79 | CC1(C)SC2C(NC(=O)C(N)c3ccc(O)cc3)C(=O)N2C1C(=O)O (configuration not stated) [Amoxicillin]
4.86 | CC1(C)SC2C(NC(=O)C(N)c3ccccc3)C(=O)N2C1C(=O)O (configuration not stated) [Ampicillin]
0.481 | O=c1cc(-c2ccc(O)cc2)oc2cc(O)cc(O)c12 [Apigenin]
1.25 | O=C1CCc2ccc(OCCCCN3CCN(c4cccc(Cl)c4Cl)CC3)cc2N1 [Aripiprazole]
4 | COC(=O)C(Cc1ccccc1)NC(=O)C(N)CC(=O)O (configuration not stated) [Aspartame]
3.34 | CC(C)NCC(O)COc1ccc(CC(N)=O)cc1 (configuration not stated) [Atenolol]
1.02 | CNCCC(Oc1ccccc1C)c1ccccc1 (configuration not stated) [Atomoxetine]
0.604 | O=C(O)CCCCCCCC(=O)O [Azelaic acid]
0.416 | CCC(=O)OCC(=O)C1(OC(=O)CC)C(C)CC2C3CCC4=CC(=O)C=CC4(C)C3(Cl)C(O)CC21C (configuration not stated) [Beclometasone dipropionate]
0.91 | OC(CCN1CCCCC1)(c1ccccc1)C1CCCCC1 (configuration not stated) [Benzhexol]
0.413 | O=C(C=Cc1ccccc1)OCc1ccccc1 [Benzyl cinnamate]
0.872 | COc1ccc2c(c1OC)=CN1CCc3cc4c(cc3C1C=2)OCO4 (configuration not stated) [Berberine]
5.7 | C[N+](C)(C)CC(=O)[O-] [Betaine]
6.2 | O=C(O)CN(CCO)CCO [Bicine]
0.518 | C=CC1=C(C)C(=Cc2[nH]c(Cc3[nH]c(C=C4NC(=O)C(C)=C4C=C)c(C)c3CCC(=O)O)c(CCC(=O)O)c2C)NC1=O [Bilirubin]
0.424 | COc1ccc(-c2coc3cc(O)cc(O)c3c2=O)cc1 [Biochanin A]
1.17 | O=C(O)CCCCC1SCC2NC(=O)NC21 (configuration not stated) [Biotin]
0.477 | Cn1c(=O)c2c(ncn2C)n(C)c1=O [Caffeine]
0.429 | CC12CCC(=O)C=C1C=CC1C2CCC2(C)C1CCC21CCC(=O)O1 (configuration not stated) [Canrenone]

LC retention time [min] | Compound
0.943 | CCCCCCCC(=O)NCC(=O)O [Capryloyl glycine]
1.1 | CC(CS)C(=O)N1CCCC1C(=O)O (configuration not stated) [Captopril]
0.469 | NC(=O)N1c2ccccc2C=Cc2ccccc21 [Carbamazepine]
6.96 | NC(CSCC(=O)O)C(=O)O (configuration not stated) [Carbocysteine]
1.03 | COc1ccccc1OCCNCC(O)COc1cccc2[nH]c3ccccc3c12 (configuration not stated) [Carvedilol]
1.33 | O=C(O)COCCN1CCN(C(c2ccccc2)c2ccc(Cl)cc2)CC1 (configuration not stated) [Cetirizine]
4.76 | O=C(C=Cc1ccc(O)c(O)c1)OC1CC(O)(C(=O)O)CC(O)C1O (configuration not stated) [Chlorogenic acid]
1 | CN(C)CCCN1c2ccccc2Sc2ccc(Cl)cc21 [Chlorpromazine]
0.434 | O=c1cc(-c2ccccc2)oc2cc(O)cc(O)c12 [Chrysin]
2.59 | CN=C(NC#N)NCCSCc1nc[nH]c1C [Cimetidine]
0.991 | CN(C)CCCC1(c2ccc(F)cc2)OCc2cc(C#N)ccc21 (configuration not stated) [Citalopram]
8.51 | C[N+](C)(C)CCOP(=O)(O)OP(=O)([O-])OCC1OC(n2ccc(N)nc2=O)C(O)C1O (configuration not stated) [Citicoline]
0.78 | CC(=CC(=O)O)C(=O)O [Citraconic acid]
0.799 | CCN(CC)CCOc1ccc(C(=C(Cl)c2ccccc2)c2ccccc2)cc1 [Clomiphene]
0.942 | CN(C)CCCN1c2ccccc2CCc2ccc(Cl)cc21 [Clomipramine]
0.459 | CC12CCC(=O)C=C1CCC1C2CCC2(C)C1CCC2(O)C(=O)CO (configuration not stated) [Cortexolone]
0.472 | CC12CCC(=O)C=C1CCC1C2C(O)CC2(C)C(C(=O)CO)CCC12 (configuration not stated) [Corticosterone]
0.431 | O=c1ccc2ccccc2o1 [Coumarin]
6.15 | CN(CC(=O)O)C(=N)N [Creatine]
2.58 | CN1CC(=O)NC1=N [Creatinine]

Compound | LC retention time [min]
CS(=N)(=O)CC[C@H](N)C(=O)O (stereo partly drawn) [(2S)-2-Amino-4-(S-methylsulfonimidoyl)butanoic acid] | 6.69
N#CC(OC1OC(COC2OC(CO)C(O)C(O)C2O)C(O)C(O)C1O)c1ccccc1 (configuration not stated) [Amygdalin] | 4.24
COC(=O)C1=CCCN(C)C1 [Arecoline] | 2.06
NCC(CC(=O)O)c1ccc(Cl)cc1 (configuration not stated) [Baclofen] | 4.14
CC(NC(C)(C)C)C(=O)c1cccc(Cl)c1 (configuration not stated) [Bupropion] | 0.963
C=CC1CN2CCC1CC2C(O)c1ccnc2ccccc12 (configuration not stated) [Cinchonidine] | 2.2
CN(CC(=O)O)C(N)=NP(=O)(O)O [Creatine phosphate] | 7.86
